Assay results from patent US8268827B2, “Pyridazinone derivatives as PARP inhibitors” (Istituto di Ricerche di Biologia Molecolare P. Angeletti …, priority 2007, dated 2012).
Structures can show the parent of a compound that is named as a salt.

How the values were obtained:
[1] = test system: BRCA-1 silenced HeLa cells (HeLa shBRCA1-GFP); assay: Proliferation assay in BRCA-1 silenced HeLa cells; assay type: cell-based; conditions: Homo sapiens; BRCA1 silenced HeLa cells, 168 hours; read-out: CC50 in the BRCA1 silenced HeLa cells
How it was run: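 Antiproliferative effect was read by Celltiter Blue fluorescence after 168 h of compound treatment at 37° C., 5% CO2. Cells were matched HeLa pairs, BRCA1-shRNA (>80% silenced, GFP) versus non-shRNA vector control, in DMEM with 10% FCS.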

[2] = target: T1, PARP-1 (Homo sapiens, UniProt P09874); assay: PARP-1 SPA assay; assay type: biochemical
T1 construct: purchased Trevigen 4668-500-01
Method: Assay buffer: 100 mM Tris pH 8, 4 mM MgCl2, 4 mM Spermine, 200 mM KCl, 0.04% Nonidet P-40.
Nicotinamide-adenine dinucleotide (NAD)/DNA Mix: [^3H-NAD] (250 uCi/ml, 0.4 ul, Perkin-Elmer NET-443H), NAD (1.5 mM, 0.05 ul, SIGMA N-1511), Biotinylated-NAD (250 uM, 0.03 ul, Trevigen 4670-500-01), Activated calf thymus (1 mg/ml, 0.05 ul, Amersham Biosciences 27-4575), H2O (to 10 ul).
Developing Mix: Streptavidin SPA beads (5 mg/ml, Amersham Biosciences RPNQ 0007) dissolved in 500 mM EDTA.
The reaction is performed in 96-well microplate with a final volume of 50 uL/well. Add 5 ul 5% DMSO/compound solution, add enzyme mix (35 ul), start the reaction by adding NAD/DNA mix (10 uL) and incubate for 2 hrs at RT. Stop the reaction by adding developing mix (25 ul) and incubate 15 min at RT. Measure using a Packard TOP COUNT instrument.

T1 sequence (P09874 whole entry): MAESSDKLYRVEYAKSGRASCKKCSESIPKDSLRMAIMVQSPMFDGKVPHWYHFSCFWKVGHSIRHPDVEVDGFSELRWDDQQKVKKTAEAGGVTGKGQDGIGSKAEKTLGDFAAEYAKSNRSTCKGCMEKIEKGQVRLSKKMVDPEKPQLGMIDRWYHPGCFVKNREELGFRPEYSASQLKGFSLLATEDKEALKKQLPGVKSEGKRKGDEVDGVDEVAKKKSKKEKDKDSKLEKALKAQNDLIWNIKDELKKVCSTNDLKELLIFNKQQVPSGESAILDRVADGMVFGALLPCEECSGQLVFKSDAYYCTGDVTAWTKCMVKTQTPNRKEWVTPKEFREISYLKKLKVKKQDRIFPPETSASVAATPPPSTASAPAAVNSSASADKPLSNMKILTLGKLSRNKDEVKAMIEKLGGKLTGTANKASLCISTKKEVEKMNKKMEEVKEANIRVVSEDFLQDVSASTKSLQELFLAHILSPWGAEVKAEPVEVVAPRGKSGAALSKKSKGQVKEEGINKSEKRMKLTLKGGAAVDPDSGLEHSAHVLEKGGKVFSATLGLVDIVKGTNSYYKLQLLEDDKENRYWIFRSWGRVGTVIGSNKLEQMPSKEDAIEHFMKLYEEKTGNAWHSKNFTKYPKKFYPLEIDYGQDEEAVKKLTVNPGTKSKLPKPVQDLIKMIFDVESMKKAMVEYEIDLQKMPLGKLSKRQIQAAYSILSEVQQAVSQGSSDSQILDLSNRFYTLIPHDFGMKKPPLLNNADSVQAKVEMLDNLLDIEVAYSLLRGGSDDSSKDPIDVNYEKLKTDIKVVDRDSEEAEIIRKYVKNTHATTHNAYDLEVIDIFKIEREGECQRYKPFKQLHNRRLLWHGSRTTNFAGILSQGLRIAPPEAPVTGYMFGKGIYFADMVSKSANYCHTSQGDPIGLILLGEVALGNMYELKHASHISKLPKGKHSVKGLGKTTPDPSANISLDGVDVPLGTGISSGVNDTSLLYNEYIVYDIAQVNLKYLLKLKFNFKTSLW

| Compound | CC50 [1] [nM] | IC50 [2] [nM] |
| --- | --- | --- |
| Cc1c(Cc2ccc(F)c(C(=O)N3CCN(C4CCC(F)(F)C4)C(=O)C3)c2)n[nH]c(=O)c1C (centres unmarked) [Example 49, 6-(3-{[4-(3,3-Difluorocyclopentyl)-3-oxopiperazin-1-yl]carbonyl}-4-fluorobenzyl)-4,5-dimethyl-3-oxo-2,3-dihydropyridazin-1-ium trifluoroacetate] | < 50 | < 5 |
| C[C@H]1CN(C(=O)c2cc(Cc3cc(C(F)(F)F)c(=O)[nH]n3)ccc2F)CC(=O)N1C1CCCC1 [Example 152, 6-(3-{[(3S)-4-cyclopentyl-3-methyl-5-oxopiperazin-1-yl]carbonyl}-4-fluorobenzyl)-4-(trifluoromethyl)pyridazin-3(2H)-one] | < 5000 | 5 to 25 |
| C[C@@H]1CCC[C@H]2CN(C(=O)c3cc(Cc4cc(C(F)(F)F)c(=O)[nH]n4)ccc3F)CC(=O)N21 (racemic) [Example 87, 6-{4-Fluoro-3-[(cis-6-methyl-4-oxooctahydro-2H-pyrido[1,2-a]pyrazin-2-yl)carbonyl]benzyl}-3-oxo-4-(trifluoromethyl)-2,3-dihydropyridazin-1-ium trifluoroacetate] | < 50 | 5 to 25 |
| Cc1c(Cc2ccc(F)c(C(=O)N3CC(=O)N4CCCC[C@H]4C3)c2)n[nH]c(=O)c1C(F)(F)F [Example 135, 3-(4-Fluoro-3-{[(9aS)-4-oxooctahydro-2h-pyrido[1,2-a]pyrazin-2-yl]carbonyl}benzyl)-4-methyl-6-oxo-5-(trifluoromethyl)-1,6-dihydropyridazin-1-ium trifluoroacetate] | < 50 | 5 to 25 |
| Cc1c(Cc2ccc(F)c(C(=O)N3CCN([C@H]4CCOC4)C(=O)C3)c2)n[nH]c(=O)c1C [Example 113, 6-[4-Fluoro-3-({3-oxo-4-[(3S)-tetrahydrofuran-3-yl]piperazin-1-yl}carbonyl)benzyl]-4,5-dimethylpyridazin-3(2H)-one] | 50 to 500 | 5 to 25 |
| Cc1c(Cc2ccc(F)c(C(=O)N3CC(=O)N4CCCC[C@@H]4C3)c2)n[nH]c(=O)c1C [Example 90, (9aR)-2-{5-[(4,5-Dimethyl-6-oxo-1,6-dihydropyridazin-3-yl)methyl]-2-fluorobenzoyl}octahydro-4H-pyrido[1,2-a]pyrazin-4-one trifluoroacetate] | < 50 | < 5 |
| Cc1c(Cc2ccc(F)c(C(=O)N3CCN(C4CCOCC4)C(=O)C3)c2)n[nH]c(=O)c1C [Example 120, 6-(4-fluoro-3-{[3-oxo-4-(tetrahydro-2H-pyran-4-yl)piperazin-1-yl]carbonyl}benzyl)-4,5-dimethyl-3-oxo-2,3-dihydropyridazin-1-ium trifluoroacetate] | < 5000 | 5 to 25 |
| Cc1c(Cc2ccc(F)c(C(=O)N3CC(=O)N(C4CCC4)[C@@H](C)C3)c2)n[nH]c(=O)c1C [Example 176, 6-(3-{[(3S)-4-Cyclobutyl-3-methyl-5-oxopiperazin-1-yl]carbonyl}-4-fluorobenzyl)-4,5-dimethylpyridazin-3(2H)-one] | < 5000 | 5 to 25 |
| Cc1c(Cc2ccc(F)c(C(=O)N3CCN(C4CCOC(C)(C)C4)C(=O)C3)c2)n[nH]c(=O)c1C (centres unmarked) [Example 76, 6-(3-{[4-(2,2-Dimethyltetrahydro-2H-pyran-4-yl)-3-oxopiperazin-1-yl]carbonyl}-4-fluorobenzyl)-4,5-dimethylpyridazin-3(2H)-one trifluoroacetate] | < 5000 | < 5 |
| CCc1cc(Cc2ccc(F)c(C(=O)N3CCN(C4CCc5ccccc5C4)C(=O)C3)c2)n[nH]c1=O (centres unmarked) [Example 148, 4-Ethyl-6-(4-fluoro-3-{[3-oxo-4-(1,2,3,4-tetrahydronaphthalen-2-yl)piperazin-1-yl]carbonyl}benzyl)pyridazin-3(2H)-one] | 50 to 500 | < 5 |
| Cc1c(Cc2ccc(F)c(C(=O)N3CCC(=O)N(C(C)C)CC3)c2)n[nH]c(=O)c1C [Example 36, 6-{4-Fluoro-3-[(4-isopropyl-5-oxo-1,4-diazepan-1-yl)carbonyl]benzyl}-4,5-dimethyl-3-oxo-2,3-dihydropyridazin-1-ium trifluoroacetate] | < 5000 | 5 to 25 |
| Cc1c(Cc2ccc(F)c(C(=O)N3CCN(CC4(c5ccccc5)CCOCC4)C(=O)C3)c2)n[nH]c(=O)c1C [Example 56, 6-[4-Fluoro-3-({3-oxo-4-[(4-phenyltetrahydro-2H-pyran-4-yl)methyl]piperazin-1-yl}carbonyl)benzyl]-4,5-dimethyl-3-oxo-2,3-dihydropyridazin-1-ium trifluoroacetate] | < 5000 | 5 to 25 |
| Cc1c(Cc2ccc(F)c(C(=O)N3CCN(C4CCC(F)C4)C(=O)C3)c2)n[nH]c(=O)c1C (centres unmarked) [Example 150, 6-(4-Fluoro-3-{[4-(3-fluorocyclopentyl)-3-oxopiperazin-1-yl]carbonyl}benzyl)-4,5-dimethylpyridazin-3(2H)-one] | 50 to 500 | < 5 |
| Cc1c(Cc2ccc(F)c(C(=O)N3CCN(CCOC(C)C)C(=O)C3)c2)n[nH]c(=O)c1C [Example 172, 6-(4-Fluoro-3-{[4-(2-isopropoxyethyl)-3-oxopiperazin-1-yl]carbonyl}benzyl)-4,5-dimethylpyridazin-3(2H)-one] | < 5000 | 5 to 25 |
| CC[C@H]1CN(C(=O)c2cc(Cc3n[nH]c(=O)c(C)c3C)ccc2F)CC(=O)N1C1CCC1 [Example 181, 6-(3-{[(3S)-4-Cyclobutyl-3-ethyl-5-oxopiperazin-1-yl]carbonyl}-4-fluorobenzyl)-4,5-dimethylpyridazin-3(2H)-one] | < 5000 | 5 to 25 |
| Cc1c(Cc2ccc(F)c(C(=O)N3CCN([C@H]4CC[C@@H](F)C4)C(=O)C3)c2)n[nH]c(=O)c1C (relative stereo) [Example 80, cis-3-{4-Fluoro-3-[4-(3-fluoro-cyclopentyl)-3-oxo-piperazine-1-carbonyl]-benzyl}-4,5-dimethyl-6-oxo-1,6-dihydro-pyridazin-1-ium trifluoroacetate] | 50 to 500 | < 5 |
| Cc1c(Cc2ccc(F)c(C(=O)N3CCN(c4cccnc4)C(=O)C3)c2)n[nH]c(=O)c1C [Example 38, 6-{4-Fluoro-3-[(3-oxo-4-pyridin-3-ylpiperazin-1-yl)carbonyl]benzyl}-4,5-dimethylpyridazin-3(2H)-one] | 50 to 500 | < 5 |
| CCOCCN1CCN(C(=O)c2cc(Cc3n[nH]c(=O)c(C)c3C)ccc2F)CC1=O [Example 171, 6-(3-{[4-(2-Ethoxyethyl)-3-oxopiperazin-1-yl]carbonyl}-4-fluorobenzyl)-4,5-dimethylpyridazin-3(2H)-one] | < 5000 | < 5 |
| CCc1c(Cc2ccc(F)c(C(=O)N3CCN(C4CCCCC4)C(=O)C3)c2)n[nH]c(=O)c1C(F)(F)F [Example 39, 6-{3-[(4-Cyclohexyl-3-oxopiperazin-1-yl)carbonyl]-4-fluorobenzyl}-5-ethyl-4-(trifluoromethyl)pyridazin-3(2H)-one trifluoroacetate] | < 50 | < 5 |
| Cc1c(Cc2ccc(F)c(C(=O)N3CC(=O)N(C4CCCC4)[C@H](C)C3)c2)n[nH]c(=O)c1C [Example 115, 6-(3-{[(3R)-4-cyclopentyl-3-methyl-5-oxopiperazin-1-yl]carbonyl}-4-fluorobenzyl)-4,5-dimethylpyridazin-3(2H)-one] | < 5000 | 5 to 25 |
| CCN1C(=O)CN(C(=O)c2cc(Cc3n[nH]c(=O)c(C)c3C)ccc2F)CC1C (centres unmarked) [Example 137, 6-{3-[(4-ethyl-3-methyl-5-oxopiperazin-1-yl)carbonyl]-4-fluorobenzyl}-4,5-dimethyl-3-oxo-2,3-dihydropyridazin-1-ium trifluoroacetate] | 50 to 500 | 5 to 25 |
| Cc1c(Cc2ccc(F)c(C(=O)N3CCN(C4CCC4)C(=O)C3)c2)n[nH]c(=O)c1C [Example 57, 6-{3-[(4-Cyclobutyl-3-oxopiperazin-1-yl)carbonyl]-4-fluorobenzyl}-4,5-dimethyl-3-oxo-2,3-dihydropyridazin-1-ium trifluoroacetate] | 50 to 500 | 5 to 25 |
| CCc1cc(Cc2ccc(F)c(C(=O)N3CCN([C@H]4CCCOC4)C(=O)C3)c2)n[nH]c1=O [Example 144, 4-ethyl-6-[4-fluoro-3-({3-oxo-4-[(3S)-tetrahydro-2H-pyran-3-yl]piperazin-1-yl}carbonyl)benzyl]pyridazin-3(2H)-one] | < 5000 | < 5 |
| Cc1c(Cc2ccc(F)c(C(=O)N3CCN(c4cc(C(F)(F)F)ccn4)C(=O)C3)c2)n[nH]c(=O)c1C [Example 61, 3-[4-Fluoro-3-({3-oxo-4-[4-(trifluoromethyl)pyridin-2-yl]piperazin-1-yl}carbonyl)benzyl]-4,5-dimethyl-6-oxo-1,6-dihydropyridazin-1-ium trifluoroacetate] | 50 to 500 | 5 to 25 |
| Cc1c(Cc2ccc(F)c(C(=O)N3CCN(CC4CCCc5ccccc54)C(=O)C3)c2)n[nH]c(=O)c1C (centres unmarked) [Example 53, 6-(4-Fluoro-3-{[3-oxo-4-(1,2,3,4-tetrahydronaphthalen-1-ylmethyl)piperazin-1-yl]carbonyl}benzyl)-4,5-dimethyl-3-oxo-2,3-dihydropyridazin-1-ium trifluoroacetate] | 50 to 500 | 5 to 25 |
